Source: ChEMBL document CHEMBL1909046, “DrugMatrix in vitro pharmacology data”

Columns and labels:
[1] = target: Voltage-gated inwardly rectifying potassium channel KCNH2 (Homo sapiens, UniProt Q12809)
Cytochrome P450 2D6 = Cytochrome P450 2D6 (Homo sapiens, UniProt P10635)
Glucocorticoid receptor = target: T1, Glucocorticoid receptor (Homo sapiens, UniProt P04150); assay: biochemical
T1 sequence (P04150 whole entry): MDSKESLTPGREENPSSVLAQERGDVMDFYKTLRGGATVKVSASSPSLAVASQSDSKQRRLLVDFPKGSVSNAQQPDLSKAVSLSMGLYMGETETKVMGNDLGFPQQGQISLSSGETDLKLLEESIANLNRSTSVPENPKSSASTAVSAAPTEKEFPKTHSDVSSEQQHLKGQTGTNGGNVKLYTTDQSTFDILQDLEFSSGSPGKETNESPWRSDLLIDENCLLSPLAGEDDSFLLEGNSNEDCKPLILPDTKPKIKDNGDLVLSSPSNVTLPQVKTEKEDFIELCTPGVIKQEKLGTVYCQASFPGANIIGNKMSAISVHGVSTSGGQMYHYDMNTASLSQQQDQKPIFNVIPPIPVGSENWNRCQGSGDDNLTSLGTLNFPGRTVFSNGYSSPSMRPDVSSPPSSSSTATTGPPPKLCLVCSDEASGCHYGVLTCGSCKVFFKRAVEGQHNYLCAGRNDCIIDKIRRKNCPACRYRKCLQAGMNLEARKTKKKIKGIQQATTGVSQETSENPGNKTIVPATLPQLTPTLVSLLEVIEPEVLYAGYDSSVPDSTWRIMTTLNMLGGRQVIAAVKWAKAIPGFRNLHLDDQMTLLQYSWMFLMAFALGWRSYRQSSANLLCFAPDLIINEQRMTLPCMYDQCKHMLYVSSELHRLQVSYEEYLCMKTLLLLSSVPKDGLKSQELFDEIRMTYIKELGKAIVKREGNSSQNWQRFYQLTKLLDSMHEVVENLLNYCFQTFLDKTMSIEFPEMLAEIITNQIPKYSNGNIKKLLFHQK

Sequence of Voltage-gated inwardly rectifying potassium channel KCNH2 (Q12809 whole entry): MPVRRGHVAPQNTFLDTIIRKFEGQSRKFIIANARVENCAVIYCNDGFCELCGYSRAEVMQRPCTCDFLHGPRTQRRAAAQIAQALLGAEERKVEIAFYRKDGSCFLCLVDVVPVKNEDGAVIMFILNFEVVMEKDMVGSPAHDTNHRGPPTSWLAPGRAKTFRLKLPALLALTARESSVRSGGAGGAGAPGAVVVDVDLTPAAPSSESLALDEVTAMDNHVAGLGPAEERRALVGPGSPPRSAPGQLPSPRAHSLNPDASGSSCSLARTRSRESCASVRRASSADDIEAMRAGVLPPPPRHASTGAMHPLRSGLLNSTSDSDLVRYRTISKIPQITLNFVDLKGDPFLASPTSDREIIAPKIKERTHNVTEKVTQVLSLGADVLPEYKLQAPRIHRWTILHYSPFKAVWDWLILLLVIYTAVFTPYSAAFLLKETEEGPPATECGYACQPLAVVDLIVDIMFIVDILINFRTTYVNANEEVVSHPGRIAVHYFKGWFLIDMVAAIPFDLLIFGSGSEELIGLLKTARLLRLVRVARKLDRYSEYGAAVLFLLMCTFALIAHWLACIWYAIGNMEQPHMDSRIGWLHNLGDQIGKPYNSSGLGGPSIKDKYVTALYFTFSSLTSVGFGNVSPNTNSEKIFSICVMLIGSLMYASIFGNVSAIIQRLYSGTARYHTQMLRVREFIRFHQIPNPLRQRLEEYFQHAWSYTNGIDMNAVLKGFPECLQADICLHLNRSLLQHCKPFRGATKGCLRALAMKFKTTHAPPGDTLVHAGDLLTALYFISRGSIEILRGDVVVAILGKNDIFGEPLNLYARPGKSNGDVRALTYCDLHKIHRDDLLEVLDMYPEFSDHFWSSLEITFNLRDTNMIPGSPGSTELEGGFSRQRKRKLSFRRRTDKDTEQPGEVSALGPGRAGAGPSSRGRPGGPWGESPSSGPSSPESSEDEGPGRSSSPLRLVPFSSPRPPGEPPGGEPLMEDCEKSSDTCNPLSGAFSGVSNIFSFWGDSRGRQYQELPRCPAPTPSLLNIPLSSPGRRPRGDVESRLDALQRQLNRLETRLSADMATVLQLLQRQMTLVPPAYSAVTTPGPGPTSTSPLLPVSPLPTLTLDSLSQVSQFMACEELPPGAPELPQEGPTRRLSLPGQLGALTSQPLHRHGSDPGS
Sequence of Cytochrome P450 2D6 (P10635 whole entry): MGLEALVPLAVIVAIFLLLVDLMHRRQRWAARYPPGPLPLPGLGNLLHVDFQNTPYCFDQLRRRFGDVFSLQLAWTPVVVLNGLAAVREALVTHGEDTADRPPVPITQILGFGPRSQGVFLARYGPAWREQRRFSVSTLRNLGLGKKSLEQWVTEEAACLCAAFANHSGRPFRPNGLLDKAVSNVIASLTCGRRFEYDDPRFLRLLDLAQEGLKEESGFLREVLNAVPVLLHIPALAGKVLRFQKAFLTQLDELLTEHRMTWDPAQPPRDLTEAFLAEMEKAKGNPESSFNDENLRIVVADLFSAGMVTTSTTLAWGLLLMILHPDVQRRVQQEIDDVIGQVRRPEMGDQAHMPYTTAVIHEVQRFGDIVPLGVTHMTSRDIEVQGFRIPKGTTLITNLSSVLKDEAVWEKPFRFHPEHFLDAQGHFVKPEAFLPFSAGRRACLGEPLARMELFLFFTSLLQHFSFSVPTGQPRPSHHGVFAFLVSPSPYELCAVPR

SMILES: OCCN1CCN(CCCN2c3ccccc3Sc3ccc(C(F)(F)F)cc32)CC1 [FLUPHENAZINE]
- IC50 [1]: 5.71 µM
- Ki [1]: 4.67 µM

SMILES: COc1cc(N)nc2[nH]c(-c3ccc(F)cc3)c(-c3ccncc3)c12
- IC50 (Cytochrome P450 2D6): 0.2 µM

SMILES: C[C@]12CC[C@H]3[C@@H](CCC4=CC(=O)CC[C@@]43C)[C@@H]1CC[C@@H]2O [TESTOSTERONE]
- IC50 (Glucocorticoid receptor): 3.21 µM
- Ki (Glucocorticoid receptor): 1.46 µM
